Data: patent US20180201592A1, “2-AMINO-1,3,4-THIADIAZINE AND 2-AMINO-1,3,4-OXADIAZINE BASED ANTIFUNGAL AGENTS” (F2G Limited, priority 2015, published 2018)

Key:
Settings in all cases: banded MIC grade
A. fumigatus = assay: Minimum inhibitory concentration, RPMI medium; assay type: cell-based
Method: (§1) Between 1 and 5 mgs of compound were accurately weighed out into a sterile Eppendorf tube. The compound was dissolved in DMSO to give a solution containing 5 mg/mL. Tubes were stored at −20° C. until required.
(§2) On the day of testing thawed solutions were vortex mixed to ensure homogeneity. 30 μL of solution was removed and added to 570 μL of sterile water in a separate sterile Eppendorf. The thoroughly mixed solution was used to prepare a series of doubling dilutions in water, in a deep well plate. Thirteen replicate plates were prepared using a Minitrak by aspirating 20 μL from each well into eleven clear polystyrene 96 well plates.
(§3) Assays were also performed in RPMI medium (Roswell Park Memorial Media 1640). To perform MIC tests in this medium, dilutions of compounds are prepared in microtitre plates as described above. Fungal strains to be tested are grown and harvested in an identical manner to that described above, and each organism suspension was diluted in RPMI medium, typically containing 2% glucose and 0.135 M MOPS buffer (pH 7.0) to 0.5-2×10^4cfu/mL, rather than in YAG medium. 80 μL of an organism suspension was added to each well of the plate containing drug dilutions.
(§4) This produced MIC plates with a drug range 50-0.05 mg/L and organism inocula of 1-2×10^4 cfu/mL. All plates were incubated for 24-48 hrs at 35° C. Growth was assessed by monitoring the optical density at 485 nm for each well. The MIC of a compound is the lowest drug concentration that inhibits growth of an organism by >80% compared with a drug free control. The following organisms were tested: C. albicans, C. parapsilosis, C. tropicalis, C. glabrata, C. krusei, A. niger, A. fumigatus, A. terreus, A. flavus, A. terreus 49, and A. fumigatus 210.

A. fumigatus 210 [1] = assay: Minimum inhibitory concentration, RPMI medium; assay type: cell-based
Method: as §1, §2, §3, §4

A. fumigatus 210 [2] = assay: Minimum inhibitory concentration, YAG medium; assay type: cell-based, Aspergillus fumigatus
Summary of the method: (§5)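 MICs (mg/L) reflect >70% inhibition of OD485 growth versus untreated control after 24 hrs at 35° C in YAG medium, spore inoculum 1-2×10^4 cfu/mL, drug range 50-0.05 mg/L.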

Aspergillus fumigatus = assay: Minimum inhibitory concentration, YAG medium; assay type: cell-based
Summary of the method: as §5

Aspergillus niger = assay: Minimum inhibitory concentration, YAG medium; assay type: cell-based
Summary of the method: (§6)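 MIC values (mg/L) were derived from well optical density at 485 nm. Plates with Aspergillus spores and doubling aqueous dilutions of compound (5 mg/mL DMSO stock) had been incubated at 35° C for 24 hrs.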

Aspergillus flavus = assay: Minimum inhibitory concentration, YAG medium; assay type: cell-based
Summary of the method: as §6

Aspergillus terreus = assay: Minimum inhibitory concentration, YAG medium; assay type: cell-based
Summary of the method: as §6

A. terreus = assay: Minimum inhibitory concentration, RPMI medium; assay type: cell-based
Summary of the method: (§7)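 Thawed 5 mg/mL DMSO stocks are vortexed, diluted into sterile water and serially halved in water. The MIC test is then run in RPMI 1640 at 35° C for 24-48 hrs. Wells are read at OD 485 nm.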

C. albicans = assay: Minimum inhibitory concentration, RPMI medium; assay type: cell-based
Summary of the method: as §7

A. niger = assay: Minimum inhibitory concentration, RPMI medium; assay type: cell-based
Summary of the method: as §7

C. tropicalis = assay: Minimum inhibitory concentration, RPMI medium; assay type: cell-based
Summary of the method: as §7

C. glabrata = assay: Minimum inhibitory concentration, RPMI medium; assay type: cell-based
Summary of the method: as §7

C. krusei = assay: Minimum inhibitory concentration, RPMI medium; assay type: cell-based
Summary of the method: as §7

C. parapsilosis = assay: Minimum inhibitory concentration, RPMI medium; assay type: cell-based
Summary of the method: as §7

A. flavus = assay: Minimum inhibitory concentration, RPMI medium; assay type: cell-based
Summary of the method: as §7

A. terreus 49 [3] = assay: Minimum inhibitory concentration, RPMI medium; assay type: cell-based
Summary of the method: as §7

A. terreus 49 [4] = assay: Minimum inhibitory concentration, YAG medium; assay type: cell-based, Aspergillus terreus
Summary of the method: as §6

Structure (SMILES) | MIC grade, A. FUMIGATUS, RPMI media (A. fumigatus) | MIC grade, A. FUMIGATUS 210, RPMI media (A. fumigatus 210 [1]) | MIC grade, A. FUMIGATUS 210, YAG media (A. fumigatus 210 [2]) | MIC grade, A. FUMIGATUS, YAG media (Aspergillus fumigatus) | MIC grade, A. NIGER, YAG media (Aspergillus niger) | MIC grade, A. FLAVUS, YAG media (Aspergillus flavus) | MIC grade, A. TERREUS, YAG media (Aspergillus terreus) | MIC grade, A. TERREUS, RPMI media (A. terreus) | MIC grade, C. ALBICANS, RPMI media (C. albicans) | MIC grade, A. NIGER, RPMI media (A. niger) | MIC grade, C. TROPICALIS, RPMI media (C. tropicalis) | MIC grade, C. GLABRATA, RPMI media (C. glabrata) | MIC grade, C. KRUSEI, RPMI media (C. krusei) | MIC grade, C. PARAPSILOSIS, RPMI media (C. parapsilosis) | MIC grade, A. FLAVUS, RPMI media (A. flavus) | MIC grade, A. TERREUS 49, RPMI media (A. terreus 49 [3]) | MIC grade, A. TERREUS 49, YAG media (A. terreus 49 [4])
NC1=NN=C(CCCCOCc2ccccc2C(F)(F)F)CS1 | 1 (1: ≥20 mg/L) | 1 (1: ≥20 mg/L) | 2 (2: 1-5 mg/L) | 3 (3: 0.2-1 mg/L) | 3 (3: 0.2-1 mg/L) | 2 (2: 1-5 mg/L) | 2 (2: 1-5 mg/L) | 1 (1: ≥20 mg/L) | 2 (2: 5-20 mg/L) | 1 (1: ≥20 mg/L) | 2 (2: 5-20 mg/L) | 1 (1: ≥20 mg/L) | 2 (2: 5-20 mg/L) | 1 (1: ≥20 mg/L) | 1 (1: ≥20 mg/L) | 1 (1: ≥20 mg/L) | 2 (2: 1-5 mg/L)
NC1=NN=C(CCCCOCc2c(F)cccc2Cl)CS1 | 2 (2: 5-20 mg/L) | 1 (1: ≥20 mg/L) | 3 (3: 0.2-1 mg/L) | 3 (3: 0.2-1 mg/L) | 3 (3: 0.2-1 mg/L) | 3 (3: 0.2-1 mg/L) | 3 (3: 0.2-1 mg/L) | 2 (2: 5-20 mg/L) | 2 (2: 5-20 mg/L) | 2 (2: 5-20 mg/L) | 2 (2: 5-20 mg/L) | 2 (2: 5-20 mg/L) | 3 (3: 1-5 mg/L) | 2 (2: 5-20 mg/L) | 2 (2: 5-20 mg/L) | 2 (2: 5-20 mg/L) | 3 (3: 0.2-1 mg/L)
NC1=NN=C(CCCCOCc2ccccc2C2CC2)CS1 | 2 (2: 5-20 mg/L) | 1 (1: ≥20 mg/L) | 2 (2: 1-5 mg/L) | 2 (2: 1-5 mg/L) | 2 (2: 1-5 mg/L) | 3 (3: 0.2-1 mg/L) | 2 (2: 1-5 mg/L) | 2 (2: 5-20 mg/L) | 3 (3: 1-5 mg/L) | 1 (1: ≥20 mg/L) | 3 (3: 1-5 mg/L) | 2 (2: 5-20 mg/L) | 2 (2: 5-20 mg/L) | 3 (3: 1-5 mg/L) | 1 (1: ≥20 mg/L) | 2 (2: 5-20 mg/L) | 2 (2: 1-5 mg/L)
